{"source": "PubChem BioAssay AID248", "about": "(DTP/NCI, 2004)", "tested_on": "L1210 leukemia ip in BDF1 mice, survival T/C", "experiment": "NCI In Vivo Anticancer Drug Screen. Data for tumor model L1210 Leukemia (intraperitoneal) in B6D2F1 (BDF1) mice", "settings": "endpoint: mean survival time, higher = longer survival", "procedure,_shortened": "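Tumor was transplanted into mice, which were then dosed with test compound or vehicle alone. Survival was recorded for each group, and the treated figure was expressed relative to the control figure.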", "key": {"[1]": {"settings": "dose: 100.0 mg/kg/injection, schedule: Q01DX009 (ip), vehicle: saline with Tween-80"}, "[2]": {"settings": "dose: 100.0 mg/kg/injection, schedule: Q04DX003 (ip), vehicle: saline with Tween-80"}, "[3]": {"settings": "dose: 200.0 mg/kg/injection, schedule: Q01DX009 (ip), vehicle: saline with Tween-80"}, "[4]": {"settings": "dose: 200.0 mg/kg/injection, schedule: Q04DX003 (ip), vehicle: saline with Tween-80"}, "[5]": {"settings": "dose: 400.0 mg/kg/injection, schedule: Q04DX003 (ip), vehicle: saline with Tween-80"}, "[6]": {"settings": "dose: 50.0 mg/kg/injection, schedule: Q01DX009 (ip), vehicle: saline with Tween-80"}}, "note": "“And” between values parts separate entries of the source, which are not always exact repeats. Equal values may be shown once. Toxic doses and inconclusive results are not listed.", "data": [{"smiles": "S=c1nc[nH]c2c1ncn2C1CCCCO1", "note": "(centres undefined)", "values": [{"measurement": "T/C", "setting": "dose: 16.0 mg/kg/injection, schedule: Q01DX Z (ip), vehicle: carboxymethylcellulose (CMC)", "result": "120 % of control"}, {"measurement": "T/C", "setting": "dose: 21.0 mg/kg/injection, schedule: Q01DX009 (ip), vehicle: saline", "result": "103 % of control"}, {"measurement": "T/C", "setting": "dose: 36.0 mg/kg/injection, schedule: Q01DX009 (ip), vehicle: saline", "result": "120 % of control"}, {"measurement": "T/C", "setting": "dose: 88.0 mg/kg/injection, schedule: Q01DX001 (ip), vehicle: saline", "result": "112 % of control"}, {"measurement": "T/C", "setting": "dose: 100.0 mg/kg/injection, schedule: Q01DX001 (ip), vehicle: carboxymethylcellulose (CMC)", "result": "124 % of control"}, {"measurement": "T/C", "setting": "dose: 100.0 mg/kg/injection, schedule: Q01DX009 (ip), vehicle: saline", "result": "118 % of control"}, {"measurement": "T/C", "setting": "dose: 120.0 mg/kg/injection, schedule: Q01DX009 (ip), vehicle: saline", "result": "107 % of control"}, {"measurement": "T/C", "setting": "dose: 125.0 mg/kg/injection, schedule: Q01DX Z (ip), vehicle: carboxymethylcellulose (CMC)", "result": "94 % of control"}, {"measurement": "T/C", "setting": "dose: 133.0 mg/kg/injection, schedule: Q01DX001 (ip), vehicle: saline", "result": "122 % of control"}, {"measurement": "T/C", "setting": "dose: 177.0 mg/kg/injection, schedule: Q01DX001 (ip), vehicle: carboxymethylcellulose (CMC)", "result": "155 % of control"}, {"measurement": "T/C", "setting": "dose: 200.0 mg/kg/injection, schedule: Q01DX001 (ip), vehicle: saline", "result": "155 % of control"}, {"measurement": "T/C", "setting": "dose: 267.0 mg/kg/injection, schedule: Q01DX001 (ip), vehicle: carboxymethylcellulose (CMC)", "result": "159 % of control"}, {"measurement": "T/C", "setting": "dose: 600.0 mg/kg/injection, schedule: Q01DX001 (ip), vehicle: carboxymethylcellulose (CMC)", "result": "150 % of control and 156 % of control"}, {"measurement": "T/C", "setting": "dose: 900.0 mg/kg/injection, schedule: Q01DX001 (ip), vehicle: carboxymethylcellulose (CMC)", "result": "104 % of control"}, {"measurement": "T/C", "setting": "dose: 1350.0 mg/kg/injection, schedule: Q01DX001 (ip), vehicle: carboxymethylcellulose (CMC)", "result": "96 % of control"}]}, {"smiles": "CC1S(=O)(=O)CCS1(=O)=O", "values": [{"measurement": "T/C", "setting": "dose: 75.0 mg/kg/injection, schedule: Q01DX001 (ip), vehicle: saline with Tween-80", "result": "100 % of control"}, {"measurement": "T/C", "setting": "dose: 150.0 mg/kg/injection, schedule: Q01DX001 (ip), vehicle: saline with Tween-80", "result": "100 % of control"}, {"measurement": "T/C", "setting": "dose: 300.0 mg/kg/injection, schedule: Q01DX001 (ip), vehicle: saline with Tween-80", "result": "103 % of control"}]}, {"smiles": "Cc1ccc(-n2c(O)c(N=Nc3ccc(Br)cc3)c(=O)n(-c3ccc(I)cc3)c2=S)cc1", "values": [{"measurement": "T/C", "setting": "dose: 50.0 mg/kg/injection, schedule: Q01DX001 (ip), vehicle: Klucel (hydroxypropylcellulose) (HPC)", "result": "100 % of control"}, {"measurement": "T/C", "setting": "dose: 100.0 mg/kg/injection, schedule: Q01DX001 (ip), vehicle: Klucel (hydroxypropylcellulose) (HPC)", "result": "109 % of control"}, {"measurement": "T/C", "setting": "dose: 200.0 mg/kg/injection, schedule: Q01DX001 (ip), vehicle: Klucel (hydroxypropylcellulose) (HPC)", "result": "106 % of control"}]}, {"smiles": "CC(SC(C)c1ccccc1)c1ccccc1", "note": "(centres undefined)", "values": [{"measurement": "T/C", "setting": "[1]", "result": "93 % of control"}, {"measurement": "T/C", "setting": "[2]", "result": "101 % of control"}, {"measurement": "T/C", "setting": "[3]", "result": "91 % of control"}, {"measurement": "T/C", "setting": "[4]", "result": "106 % of control"}, {"measurement": "T/C", "setting": "[5]", "result": "97 % of control"}]}, {"smiles": "O=C(O)/C=C(/C(=O)O)c1cccn1Cc1ccccc1", "values": [{"measurement": "T/C", "setting": "dose: 25.0 mg/kg/injection, schedule: Q01DX009 (ip), vehicle: saline with Tween-80", "result": "110 % of control"}, {"measurement": "T/C", "setting": "[6]", "result": "100 % of control"}, {"measurement": "T/C", "setting": "[1]", "result": "102 % of control"}]}, {"smiles": "CCOc1ccc(NC(=O)COc2ccc(Cl)cc2)cc1", "values": [{"measurement": "T/C", "setting": "dose: 100.0 mg/kg/injection, schedule: Q01DX009 (ip), vehicle: Klucel (hydroxypropylcellulose) (HPC)", "result": "88 % of control"}, {"measurement": "T/C", "setting": "dose: 100.0 mg/kg/injection, schedule: Q04DX003 (ip), vehicle: Klucel (hydroxypropylcellulose) (HPC)", "result": "93 % of control"}, {"measurement": "T/C", "setting": "dose: 200.0 mg/kg/injection, schedule: Q01DX009 (ip), vehicle: Klucel (hydroxypropylcellulose) (HPC)", "result": "92 % of control"}, {"measurement": "T/C", "setting": "dose: 200.0 mg/kg/injection, schedule: Q04DX003 (ip), vehicle: Klucel (hydroxypropylcellulose) (HPC)", "result": "101 % of control"}, {"measurement": "T/C", "setting": "dose: 400.0 mg/kg/injection, schedule: Q01DX009 (ip), vehicle: Klucel (hydroxypropylcellulose) (HPC)", "result": "87 % of control"}, {"measurement": "T/C", "setting": "dose: 400.0 mg/kg/injection, schedule: Q04DX003 (ip), vehicle: Klucel (hydroxypropylcellulose) (HPC)", "result": "101 % of control"}]}, {"smiles": "COC(=O)C1(C)CCCC2(C)C1CCC13OCC(CC21)C(=C(C)C)C3OC(C)=O", "note": "(centres undefined)", "values": [{"measurement": "T/C", "setting": "[1]", "result": "93 % of control"}, {"measurement": "T/C", "setting": "[3]", "result": "88 % of control"}, {"measurement": "T/C", "setting": "dose: 400.0 mg/kg/injection, schedule: Q01DX009 (ip), vehicle: saline with Tween-80", "result": "90 % of control"}]}, {"smiles": "Cc1ccc[n+](Cc2ccccc2)c1", "values": [{"measurement": "T/C", "setting": "dose: 12.5 mg/kg/injection, schedule: Q04DX003 (ip), vehicle: saline", "result": "98 % of control"}, {"measurement": "T/C", "setting": "dose: 25.0 mg/kg/injection, schedule: Q04DX003 (ip), vehicle: saline", "result": "101 % of control"}, {"measurement": "T/C", "setting": "dose: 50.0 mg/kg/injection, schedule: Q04DX003 (ip), vehicle: saline", "result": "97 % of control"}]}, {"smiles": "COc1cc(Cl)ccc1C", "values": [{"measurement": "T/C", "setting": "[6]", "result": "98 % of control"}, {"measurement": "T/C", "setting": "[1]", "result": "93 % of control"}, {"measurement": "T/C", "setting": "[2]", "result": "93 % of control"}, {"measurement": "T/C", "setting": "[3]", "result": "90 % of control"}, {"measurement": "T/C", "setting": "[4]", "result": "89 % of control"}]}, {"smiles": "COc1ccc(C)cc1NC(=O)NC(=O)c1ccc(Cl)cc1", "values": [{"measurement": "T/C", "setting": "[6]", "result": "88 % of control"}, {"measurement": "T/C", "setting": "[1]", "result": "98 % of control"}, {"measurement": "T/C", "setting": "[3]", "result": "95 % of control"}]}, {"smiles": "CNc1ccc(C(=O)C2CC2)cc1", "values": [{"measurement": "T/C", "setting": "[1]", "result": "92 % of control"}, {"measurement": "T/C", "setting": "[2]", "result": "100 % of control"}, {"measurement": "T/C", "setting": "[3]", "result": "98 % of control"}, {"measurement": "T/C", "setting": "[4]", "result": "100 % of control"}, {"measurement": "T/C", "setting": "[5]", "result": "86 % of control"}]}]}
